Results as given in US11731977B2, “SGC stimulators” (Cyclerion Therapeutics, Inc., priority 2016, dated 2023).
Like-named read-outs stand apart in the source and are kept apart here.

How the values were obtained:
[1] = Non-human primate (NHP) CSF pharmacokinetic properties (Example 6); assay type: in vivo, Cynomolgus monkeys; details: male, Cynomolgus monkey
Description: Protocol PK in NHP was determined following intravenous and oral dosing. For the intravenous (IV) experiments, a group of 4 male Cynomolgus monkeys were used. The IV group was dosed with 0.3 mg/kg of a compound formulated as a solution in 10% PEG-400, 25% of a 20% Solutol HS 15 in Water, and 65% DPBS. IV doses were administered by injection and delivered via catheter into the cephalic vein. For the oral (PO) experiments, a group of 4 male Cynomolgus monkeys were used. The PO group was dosed with 1 mg/kg of a compound formulated as a suspension in 1% HPMC E5, 0.2% Tween 80, 0.5% MC in water. PO doses were administered by oral gavage and delivered via gelatin capsule.
(§1) Plasma and CSF samples were collected as follows: samples of CSF and blood were collected at 1, 4 and 24 hours post IV dosing and 2, 8 and 24 hours post PO dosing. CSF samples (0.05 mL) were collected either the cisterna magna (primary site) or the lumbosacral region (L4/5) via direct needle puncture at the appropriate time points. Blood samples (0.25 mL) were collected from a peripheral vein. These samples were kept on ice until processed for plasma. Blood samples were centrifuged at 3200 rpm for 5 minutes at approximately 5° C. within 1 hour of collection. Plasma was directly transferred to a 96-well plate tube (0.125 mL). Plug caps were placed on the tubes and the tubes frozen at approximately −70° C. and stored until analysis. Plasma was collected and analyzed for the presence of a compound.
Quantitation of Compounds. The compound of the invention and the internal standard were extracted from plasma and CSF by precipitation. Samples were analyzed using liquid chromatography (LC) with tandem mass spectrometric detection (MS/MS) using electrospray ionization. The standard curve range was from 1 to 1000 ng/mL. Results of the compounds described herein in this assay are illustrated in Tables 6a and 6b below (0.3 mg/kg IV dose, 1 mg/kg PO dose).
Kp,uu is defined as the concentration ratio of unbound drug in CSF to unbound drug in plasma. Unbound drug in plasma (or free plasma concentration) is calculated by multiplying the total plasma concentration by the unbound fraction as determined by plasma protein binding. The CSF concentration is then divided by the free plasma concentration to determine the Kp,uu. (See e.g., Di et al., J. Med Chem., 56, 2-12 (2013))

rats [2] = test: Acute and tonic pain: acetic acid test, abdominal cramps (Example 13); details: Compound I-1 p.o. 10 mg/kg, 120 minutes after treatment
Description: Acetic Acid Test. Abdominal contraction was induced by intraperitoneal injection of 0.6% acetic acid solution in rats (10 mL/kg). The number of writhing (a twisting or contorting of the body due to pain) was recorded from the 5th to the 15th minute after injection.
(§2) Testing: 120 minutes after treatment. N=4/model/test. Results are expressed for each group as a percentage of activity calculated from the mean value of the vehicle-treated animals and compared to naïve animals, control paw, or cut-off value, depending on the test.

rats [3] = test: Acute and tonic pain: formalin test, score (Example 13); assay type: in vivo, rat; details: Compound I-1 p.o. 10 mg/kg, 120 minutes after treatment
Description: Formalin Test. 2.5% formalin solution was injected by subplantar route into the right hind paw. Scoring of pain behavior was performed in rats for 36 minutes every 3 minutes according to the following scores:
0=normal behavior of the injected hind limb to support the body
1=slight touching of the injected paw on the floor to lightly support or not support the body
2=total withdrawal of the injected paw
3=licking, biting or shaking of the injected paw

rats [4] = test: Inflammatory pain: kaolin, gait score (Example 13); assay type: in vivo, rat; details: Compound I-1 p.o. 10 mg/kg, 120 minutes after treatment
Description: Kaolin. Induction: In rats, unilateral arthritis was induced by an intra-articular injection of a 10% kaolin suspension into the knee joint of the right hind paw under gas anesthesia (3.5% isoflurane/3 L/min). Gait score: The gait score will be evaluated 3 h 30 min after kaolin administration by:
2: intermittent raising of the paw

[5] = Dog cerebrospinal fluid (CSF) pharmacokinetic properties (Example 5); assay type: in vivo; details: male, beagle, 1 mg/kg PO
Description: Protocol PK in dogs was determined following oral dosing. A group of 4 male beagle dogs were used and the dogs were dosed with 1 mg/kg of a compound formulated as a suspension in 1% HPMC E5, 0.2% Tween 80, and 0.5% MC in water. PO doses were administered by oral gavage in a gelatin capsule and delivered to the stomach using a gavage tube. Following oral dosage administration, the gavage tube was flushed with approximately 10 mL of water to ensure complete delivery of the full dose.
as §1, with “1, 2,” for “1,”, “and” for “and 24 hours post IV dosing and 2,”, “8” for “8 and 24”, “from” for “either the cisterna magna (primary site) or”, “via cephalic” for “from a peripheral”
Quantitation of Compounds. The compound of the invention and the internal standard were extracted from plasma and CSF by precipitation. Samples were analyzed using liquid chromatography (LC) with tandem mass spectrometric detection (MS/MS) using electrospray ionization. The standard curve range was from 1 to 1000 ng/mL. Results of the compounds described herein in this assay are illustrated in Tables 5a and 5b below (1 mg/kg dose).
Kp,uu is defined as the concentration ratio of unbound drug in CSF to unbound drug in plasma. Unbound drug in plasma (or free plasma concentration) is calculated by multiplying the total plasma concentration by the unbound fraction as determined by plasma protein binding. The CSF concentration is then divided by the free plasma concentration to determine the Kp,uu. (See e.g., Di et al., J. Med. Chem 56, 2-12 (2013))

rats [6] = test: Acute and tonic pain: healthy rats, tail flick test (Example 13); details: Compound I-1 p.o. 10 mg/kg, 120 minutes after treatment
Description: Tail Flick Test. A radiant heat was applied on the tail. When the rat felt discomfort, it reacted by a sudden tail movement (tail flick) which automatically stopped the stimulation and the timer for the measurement by the animal reaction time or nociceptive reaction latency (period from the beginning of the stimulation until detection of the response of the animal). A cut-off was previously fixed at 10 sec in order to prevent tissue damage.
as §2

**Q.** Which results are given for Fc1ccccc1Cc1nc(-c2nc(C(F)(F)F)n[nH]2)cn2ccnc12 [Compound I-1, 8-(2-fluorobenzyl)-6-(3-(trifluoromethyl)-1H-1,2,4-triazol-5-yl)imidazo[1,2-a]pyrazine]?
**A.** Kp uu at 1 h ([1]; CSF / unbound plasma, 0.3 mg/kg IV, @ 1 h): 1.8; Kp uu at 4 h ([1]; CSF / unbound plasma, 0.3 mg/kg IV, @ 4 h): 3; Kp uu at 24 h ([1]; CSF / unbound plasma, 0.3 mg/kg IV): 2.8; Kp uu at 2 h ([1]; CSF / unbound plasma, 1 mg/kg PO, @ 2 h): 1.8; Kp uu at 8 h ([1]; CSF / unbound plasma, 1 mg/kg PO, @ 8 h): 2.5; Kp uu at 24 h ([1]; CSF / unbound plasma, 1 mg/kg PO): 2.1; concentration at 1 h ([1]; CSF, 0.3 mg/kg IV, @ 1 h, read-out: CSF Conc.): 27 nM; concentration at 4 h ([1]; CSF, 0.3 mg/kg IV, @ 4 h, read-out: CSF Conc.): 20 nM; concentration at 24 h ([1]; CSF, 0.3 mg/kg IV, read-out: CSF Conc.): 6 nM; concentration at 2 h ([1]; CSF, 1 mg/kg PO, @ 2 h, read-out: CSF Conc.): 42 nM; concentration at 8 h ([1]; CSF, 1 mg/kg PO, @ 8 h, read-out: CSF Conc.): 31 nM; concentration at 24 h ([1]; CSF, 1 mg/kg PO, read-out: CSF Conc.): 11 nM; % of activity vs. vehicle (rats [2]): 7%; % of activity vs. vehicle (rats [3]; Formalin test - score (early phase)): 57%; % of activity vs. vehicle (rats [3]; Formalin test - score (late phase)): 32%; % of activity vs. vehicle (rats [4]): 40%; Kp uu at 1 h ([5]; CSF / unbound plasma, @ 1 h): 0.7; Kp uu at 2 h ([5]; CSF / unbound plasma, @ 2 h): 0.7; Kp uu at 4 h ([5]; CSF / unbound plasma, @ 4 h): 0.7; Kp uu at 8 h ([5]; CSF / unbound plasma, @ 8 h): 0.4; concentration at 1 h ([5]; CSF, @ 1 h, read-out: CSF Conc.): 34 nM; concentration at 2 h ([5]; CSF, @ 2 h, read-out: CSF Conc.): 34 nM; concentration at 4 h ([5]; CSF, @ 4 h, read-out: CSF Conc.): 19 nM; concentration at 8 h ([5]; CSF, @ 8 h, read-out: CSF Conc.): 2.4 nM; % of activity vs. vehicle (rats [6]): 25%
